Laboratory results: ChEMBL document CHEMBL2440011, “Screening for inhibitors of the hepatitis C virus internal ribosome entry site RNA” (Bioorg Med Chem, 2013)
Active and inactive are the calls of the source. The calls are words filed in the database; no cut-off is given here.

Legend:
[1] = Binding affinity to 5'-terminal cyanine dye-labeled IRES subdomain 2a RNA (unknown origin) by FRET assay in presence of Mg2+
[2] = Binding affinity to 5'-terminal cyanine dye-labeled IRES subdomain 2a RNA (unknown origin) at 200 uM by FRET assay
[3] = Binding affinity to 5'-terminal cyanine dye-labeled IRES subdomain 2a RNA (unknown origin) at 200 uM by FRET assay in presence of tRNA
[4] = tested on: Internal ribosome entry site (IRES); assay: Binding affinity to HCV IRES RNA assessed as inhibition of RNA translation at […] by luciferase reporter gene assay; conditions: Hepacivirus hominis
[5] = Binding affinity to cap RNA (unknown origin) assessed as inhibition of cap-dependent firefly luciferase reporter translation

Activity [1] | Activity [2] | Activity [3] | inhibition [4] | inhibition [5] | Compound
Active | – | – | – | – | CN(C)CC1COc2ccc3nc4n(c3c2C1)CC(CN(C)C)CN4 (stereo not drawn)
Dose-dependent effect | – | – | – | – | CN(C)CCCn1c(N)nc2ccc3c(c21)CC(CN(C)C)CO3 (stereo not drawn)
– | Active | – | – | – | CN(C)CCCNc1nc2cc(N)ccc2o1
Dose-dependent effect | Active | Active | 30% | inactive | CN(C)CCCNc1nc2ccc(N)cc2o1
